Source: US20160033480A1, “Immunovir and Components, Immunovir A, B, C, D Utility and Useful Processes” (priority 2013, published 2016)

What was measured:
[1] = system: HIV1; test: Anti-HIV1 activity in human venous blood mononuclear cells (HIV1P24 expression); assay type: cell-based; details: 21 days culture; FIG. 6
Description: Mononuclear cells derived from human venous blood (1×10^7 cells/0.80 mL) were suspended in capped Greiner incubation tube with R20C containing 40 ug/mL rIL-2, and 0.10 mL of immunovir (40 ug/mL or diluted with 4 fold) or, as a comparison, AZT (100, 10, or 1 ug/mL), then incubated in 5% CO2 incubator at 36-37° C. for 21 days.
Cells were precipitated by centrifugation (250 g, 5 minutes) every 3 days, and culture medium were replaced to fresh ones with identical ingredients. For antigen expression, cells were stained by mouse anti-HIV1P24 IgG1 and rabbit anti-mouse IgG1-FITC.
The percentage of cells with HIV1P24 gag gene expression, i.e., the ratio of fluorescent cells detected by indirect fluorescent antibody technique was calculated.

[2] = system: mMφ/Mo; test: Effect on mice macrophages/mononuclear cells activities in vivo after CP immunosuppression; details: immunovirs 10 mg/kg or AZT 20 mg/kg via tail vein day 2 to 5; CP-treated mice; FIG. 5
Description: Two mice of each group were injected with 10 mg/kg.b.w of immunovir (O, mixture), immunovir A, B, C, D, or 20 mg/kg.b.w of AZT via tail vein in the afternoon from day 2 to day 5, respectively. Each mouse's abdominal cavity was injected with 0.5 mL of RTAC in the afternoon of day 5, and mMφ/Mo were collected from each mouse's abdominal cavity with 10 mL of R7 1⁄2C in the afternoon of day 6. Basal medium rich in deposit cells were taken, and 0.40 mL was pipetted into two wells of flat-bottomed 24-well Falcon culture dish. After incubation with 5% CO2 for 6 hours, 0.10 mL of cRBC (1%) was added into each well and incubation was carried out for 6 hours or overnight. Then suspended cells, i.e., cRBC, were sucked out, the well was gently washed with 0.5 mL of RPMI 1640, and 0.40 mL of RBMI 1640 and 5 ul of Liu Stain B solution were added again to stain mMφ, whereas cRBCs were unstainable. CP immuno suppression was removed by Immunovir(mix), Immunovir […]. but not AZT in mouse's body, and the efficacy of Mφ/Mo activity increased as shown in FIG. 5.

[3] = system: guinea pig peritoneal derived adherent macrophages (gMφ); test: Effect on cellular immunity in vitro: gMφ killer cell activity against cRBC with or without cyclophosphamide; assay type: cell-based; details: second 20-hours incubation without CP; FIG. 4-1
Description: The effector (killer) cells for this experiment were adherent macrophages (gMφ) derived from guinea pig's peritoneal fluid cultured with RTAG (RPMI 1640 enriched with 7.5% v/v guinea pig serum). Cyclophosphamide (CP) was used as an immunosuppressive agent. Chicken red blood cells (cRBC) as target cells.
The experiment consisted of four series of experiments: gMφ+cRBC, gMφ+Imm+cRBC, gMφ+CP+cRBC, and gMφ+CP+Imm+cRBC, and immunovir (Imm) as immune response modifier.
A 200 to 250 g guinea pig was injected with 1 mL of thioglycolate medium, after 20 hours adherent macrophages derived from abdominal cavity (gMφ) were collected by aid of RPMI 1640, suspended in RTAG, then 0.9 mL of solution was pipetted into thirteen Falcon 12-well culture plates. The plates for group 1 and 2 to group 4 were 1 and 3, respectively. […] In other words, each well was filled with 1 ug/mL CP in group 2, 10 ug/mL in group 3, and 100 ug/mL in group 4. After incubation in a 5% CO2 incubator (35-37° C.), the medium in each well was replaced with fresh R7½G from group 1 (only 1 plate for control) to group 4. Then Imm was added from lane 1 to lane 4 (3 wells per lane) that the final concentration were 0, 0.1, 1, and 10 ug/mL, respectively. That was to say, from group 2 to group 4, lane 1 was a CP control, and lane 1 in plate 1 was gMφ control. […]

[4] = system: Yac-1 cells; test: Mononuclear killer cell activity derived from mouse's spleen (51Cr release from Yac-1 cells); assay type: in vivo, BALB/c mice; details: CP 200 and 100 mg/kg day 1 and 2; immunovir 10 mg/kg every day; spleens day 7
Description: Twenty male BALB/c mice aged 8 weeks were divided into group A, B, C, and D. Mice in group A were injected with 0.20 mL of normal saline intravenously. […] Group C received immunovir 10 mg/kg.b.w every day. Group D received CP as group B and immunovir as Group C. All mice's spleens were excised at day 7 and spleen-derived mononuclear cells were isolated by Ficol-paque centrifugation.
Yac-1 cells (2×10^6/mL) were labeled with R20C containing 1 uc/mL of ^51Cr-chromate for 60 minutes at 37° C.
Mouse's spleen-derived mononuclear cells (killer cells) (3×10^6) and ^51Cr-chromate-labeled Yac-1 cells (6×10^6) were suspended altogether in 1.0 mL of R20C medium and incubated at 37° C. for 150 minutes, centrifuged with 250 g for 10 minutes, then 0.50 mL of supernatant was taken and dried in the bottle.
Radioactivity was measured by liquid scintillation and toluene-PPO-POPOP was used as a scintillant.

[5] = Bioactivity of separated immunovir components (test not specified)
[6] = system: cRBC; test: Hemagglutination activity; assay type: cell-based, chicken; details: 0.4% v/v cRBC, room temperature, 2 hours
Description: Immunovir A, B, C, and D, or concanavalin A with different concentrations were added into 2 mL of normal saline 0.4% v/v cRBC suspension in Kahn tube. The solution was mixed thoroughly and kept at room temperature for 2 hours to observe hema-agglutination.

Cc1cn([C@H]2C[C@H](N=[N+]=[N-])[C@@H](CO)O2)c(=O)[nH]c1=O [AZT]
anti-HIV1 activities compared [1]: approximately the same
removal of CP immuno suppression in mouse's body (Mφ/Mo activity) [2]: not

O=P1(N(CCCl)CCCl)NCCCO1 (stereo not drawn) [CP, Cyclophosphamide]
activity of gMφ after removal of CP [3]: unrecoverable
radioactivity released (51Cr from Yac-1 cells) [4]: inhibited

CO[C@H]1O[C@H](CO)[C@@H](O)[C@H](O)[C@@H]1O [methyl-a-mannopyranoside]
bioactivity [5]: low bioactivity

concanavalin A
nature of hema-agglutination of cRBC (resuspension by shaking) [6]: firmly agglutinated with concanavalin A and could not be resuspended by shaking
